Assay [1] concerns leukocytes in porcine blood. The experiment in a line: Microscopic flow chamber: leukocyte interaction with polysulfone membrane. The class given is cell-based, pig. The text has this:
A custom microscopic flow chamber system was set up to enable microscopic analysis of leukocyte interaction with the SCD membrane. The flow chamber consisted of a polycarbonate housing with an inlet and outlet for perfusion. A polysulfone membrane was affixed to the polycarbonate block with a gasket which directed shear flow. The thickness of the gasket (100 μm) along with the length (2 cm) and the width of the channel (1.5 mm) determined the volume of the flow chamber. Microscopic imaging was accomplished through an optical window made up of a cover glass affixed to the bottom of the polycarbonate block. Either isolated blood or purified leukocytes were used for this study.
Isolated blood was prone to activation from excessive handling. Thus, 5 mL of fresh heparinized porcine blood was minimally manipulated prior to the flow chamber study. Briefly, leukocytes were fluorescently labeled using 50 μg/mL of Hoechst 33342 dye. Further, the leukocytes were activated by adding 1 μg/ml lipopolysaccharide (LPS) directly to the blood samples. […] Blood passed through the flow chamber at a rate of 20 μL/min with calculated shear forces between 1-10 dynes/cm^2. For each isolated blood sample, sequences were acquired in triplicate.
Microscopic analysis of cell capture events was accomplished using either a Zeiss Axiovert 200M or Axio-Observer epifluorescence microscope equipped with a microscope stage-top incubator to control environmental temperature and CO2 content. Fluorescence images were acquired with either a Zeiss MRm3 or an Icc1 camera at a frequency of 1 frame/second for 5 minutes, for analysis of leukocyte/membrane interaction, and at 1 frame/minute for 1 hour sequences, for analysis of long term leukocyte attachment. Frame by frame evaluation of leukocyte rolling, attachment and detachment of leukocytes was carried out to determine the total number and duration of these phenomena. An attachment event was defined as when a leukocyte appeared in the same location for multiple frames within a sequence. […]

Assay [2] concerns leukocytes in human whole blood. The experiment in a line: In vitro whole blood leukocyte activation assay. Particulars: for CD11b: n = 3; for IL-10: n = 4; for IL-8: n = 5; for IL-6: n = 7. The class given is cell-based. As for the experimental part: Heparinized human whole blood was added to tubes with or without lipopolysaccharide (LPS) (10 μg/mL) or formyl-Methionyl-Leucyl-Phenylalanine (fMLF, 50 nM). […] The release of IL-6, IL-8, or IL-10 was measured using commercially available ELISA kits from R&D Systems. The release of elastase was measured using a commercially available ELISA kit from Bender MedSystems. The release of lactoferrin was measured using a commercially available ELISA kit from EMD Chemicals. […] Samples were incubated for various times at 37° C. and 5% CO2. CD11b activation was measured using an FITC-conjugated mouse anti-human antibody (AbD Serotech) and evaluated on an Accuri C6 flow cytometer.

For the compound `O=C(O)CC(O)(CC(=O)O)C(=O)O` [Citrate], the “persistent leukocyte adhesion events” value in assay [1] (1 hour sequences, LPS and citrate versus LPS only, preliminary analysis) is recorded as “far fewer persistent leukocyte adhesion events”. In addition, the rolling events entry in assay [1] (LPS and citrate treated blood) was “increase in rolling events”. In addition, in assay [1] (LPS-activated blood, low ionized calcium, FIG. 17), the “leukocyte attachment to polysulfone membranes during shear flow” value is given as “statistically significant decrease in leukocyte attachment”.

On to Heparin, for which, in assay [2] (Baseline), the CD11b stood at 22.55 ± 1.06 MFI × 10^3, the IL-10 amounted to 0.11 ± 0.07 ng/mL, the IL-8 is listed as 0.0 ± 0^ ng/mL and the IL-6 is on record as 0.18 ± 0.04 ng/mL. In assay [2] (Stimulated (LPS, fMLF)), the CD11b was determined as 53.43 ± 3.12 MFI × 10^3, the IL-10 was 3.74 ± 0.94 ng/mL, the IL-8 is 34.18 ± 6.66 ng/mL and the IL-6 came to 65.42 ± 19.77 ng/mL.
